Measured values published in patent publication US12552769B2, “Pyrimidine derivative” (ASKA PHARMACEUTICAL CO., LTD., priority 2021, dated 2026).

Assays:
human mPGES-1 = molecular target: T1, human mPGES-1 (Homo sapiens, UniProt O14684); experiment: Test for mPGES-1 inhibitory activity; type: biochemical; conditions: microsomes of COS-1 cells expressing human mPGES-1; PGH2 1 μM; 4° C.; PGE2 by EIA; read-out: IC50 value (mPGES-1 inhibition)
T1 construct: expressed in transfected cells; host or cells: COS-1 cells (microsomal fraction)
T1 sequence (O14684 1-152): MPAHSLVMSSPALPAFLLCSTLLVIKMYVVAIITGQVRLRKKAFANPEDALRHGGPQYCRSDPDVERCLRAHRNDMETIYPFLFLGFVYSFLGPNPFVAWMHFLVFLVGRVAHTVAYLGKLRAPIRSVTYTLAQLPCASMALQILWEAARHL
Description: Microsomes were prepared from COS-1 cells transiently transfected with a plasmid containing human mPGES-1 cDNA, and used as mPGES-1 enzyme. The mPGES-1 enzyme was diluted with a sodium phosphate buffer (pH 7.2) containing reduced glutathione (2.5 mM) and EDTA (1 mM), DMSO or a DMSO solution of a test compound (final concentration of DMSO was 1%) was added to the enzyme, and the mixture was preincubated at 4° C. for 15 minutes. Then, PGH2 as the substrate was added at a final concentration of 1 μM to start the enzymatic reaction, and after incubation at 4° C. for 4 minutes, a solution of ferric chloride (25 mM) and citric acid (50 mM) was added to terminate the enzymatic reaction. Generated PGE2 was measured by using Prostaglandin E2 Express EIA Kit (Cayman Chemical). IC50 values were determined by using a standard method.

UGT [1] = experiment: Metabolic stability test (UGT), rat microsomes; type: in vitro ADME; conditions: Rat liver or small intestine microsomes 0.5 mg protein/mL, compound 1 μM, UDPGA 2 mM, 5 minutes at 37° C.
Description: (§1) DMSO was added to the compound of Example 1 to dissolve the compound, and then acetonitrile and water were added to prepare a test compound solution (10 μM). The test compound solution (final concentration 1 μM), a potassium phosphate buffer (pH 7.4) containing MgCl2 (9 mM) and alamethicin (25 μg/mL), and a rat or guinea pig liver or small intestine microsomal suspension were mixed (final concentration 0.5 mg protein/mL) under ice cooling. After 5 minutes of pre-incubation at 37° C. with stirring, a UDPGA solution (final concentration 2 mM) was added to initiate the reaction. After 5 minutes of incubation at 37° C. with stirring, 3-fold volume of acetonitrile was added, and the resulting mixture was stirred to terminate the enzymatic reaction. The reaction mixture was centrifuged (1500×g, 10 minutes, 4° C.), and the supernatant was mixed with an internal standard solution to prepare a measurement sample. The concentration of the compound in the sample was determined by LC-MS/MS. A sample in which the enzymatic reaction was not allowed was separately prepared, and the concentration measured for this sample was used as the initial value. For comparison, the compound of International Publication WO2017/73709, Example 182 was tested in the same manner.

UGT [2] = experiment: Metabolic stability test (UGT), guinea pig microsomes; type: in vitro ADME; conditions: Guinea pig liver or small intestine microsomes 0.5 mg protein/mL, compound 1 μM, UDPGA 2 mM, 5 minutes at 37° C.
Description: as §1

[3] = Blood concentration (plasma pharmacokinetics after oral administration); type: in vivo; conditions: female, guinea pig, guinea pigs, oral 10 mg/kg, mean (n = 2)
Description: The compound of Example 1 and the compound disclosed in International Patent Publication WO2017/73709, Example 182 were weighed in an amount of 10 mg each for a dose of 10 mg/kg, and each compound was finely ground in an agate mortar for about 30 seconds. 0.5% Methyl cellulose 400 solution (Fujifilm Wako Pure Chemicals Co., Ltd.) was added small portionwise to each compound to form a suspension, finally the mortar was washed with a small volume of 0.5% MC400 solution, which was combined with the suspension, and the total volume of the suspension was made to be 10 mL with 0.5% MC400 solution. The suspension was sonicated for approximately 1 minute to prepare a 1 mg/mL solution for administration. The solution was administered to two female guinea pigs at a dose of 10 mL/kg using a flexible oral catheter (RZ-1, Nippon Clea), and blood was collected 0.5, 1, 2, 4, 6, 10, and 24 hours after the oral administration, and centrifuged to obtain plasma. Plasma concentrations of the compounds were measured by the LC-MS/MS (liquid chromatography-tandem mass spectrometry) method.

Solubility test = type: physicochemical; conditions: aqueous buffer, kinetic from dmso stock; JP2 solution (pH 6.8), 10 mM DMSO solution diluted 50-fold, incubation 16 to 24 hours
Description: A 10 mM solution of the compound of Example 1 in DMSO was prepared, and diluted 50-fold with JP2 solution (pH 6.8). After incubation for 16 to 24 hours, the test solution was filtered, and the concentration of the compound in the filtrate was determined by HPLC-UV or with a plate reader. For comparison, the compound of International Patent Publication WO2017/73709, Example 182 was tested in the same manner.

Q: Which results are given for `CC(C)(F)C(=O)NCc1ccc(C(F)(F)F)c(-c2nc(-c3ccc(C(F)(F)F)cn3)cc(=O)[nH]2)c1F` [Example 1, 2-Fluoro-N-(2-fluoro-3-{6-oxo-4-[5-(trifluoromethyl)pyridin-2-yl]-1,6-dihydropyrimidin-2-yl}-4-(trifluoromethyl)benzyl)-2-methylpropanamide]?
A: IC50 (human mPGES-1): 1.8 nM; UGT metabolic stability (UGT [1]): 124 μL/min/mg protein; UGT metabolic stability (UGT [2]): 130 μL/min/mg protein; AUC(0-inf) [3]: 62.1 µM·h; AUC(0-t) [3]: 42.4 µM·h; Cmax [3]: 5.63 µM; Tmax [3]: 1.5 h; half-life [3]: 13.3 h; MRT inf ([3]; read-out: MRT0-∞): 18.3 h; solubility (Solubility test): > 110 µg/mL
